Columns and labels:
[1] = system: windgrass; experiment: Test Example 5: herbicidal effect by foliage application, plastic box (Table 20, symbol L); assay type: in vivo, windgrass (Apera spica-venti); details: foliage application, 320 g/ha
In short: (§1)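 Post-emergence foliar test in sterilized diluvial soil. Compound applied as water-diluted emulsion at a predetermined rate to 14-day-old plants; evaluation at three weeks.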

[2] = system: blackgrass; experiment: Test Example 5: herbicidal effect by foliage application, plastic box (Table 20, symbol J); assay type: in vivo, blackgrass (Alopecurus myosuroides); details: foliage application, 320 g/ha
In short: as §1

[3] = system: southern crabgrass; experiment: Test Example 5: herbicidal effect by foliage application, plastic box (Table 20, symbol F); assay type: in vivo, southern crabgrass (Digitaria ciliaris); details: foliage application, 320 g/ha
In short: as §1

[4] = system: southern crabgrass; experiment: Test Example 4: herbicidal effect by soil treatment (Table 19, symbol F); assay type: in vivo, southern crabgrass (Digitaria ciliaris); details: amount of applied herbicide 320 g/ha
In short: (§2)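 Scoring uses the grading scale of an earlier test, three weeks post-application. Treatment consists of spraying a diluted emulsion formulation across the surface of sterilized diluvial soil in which seeds are buried near 1.5 cm deep; boxes are kept in a greenhouse between 25° C. and 30° C.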

[5] = system: chickweed; experiment: Test Example 4: herbicidal effect by soil treatment (Table 19, symbol P); assay type: in vivo, common chickweed (Stellaria media); details: amount of applied herbicide 320 g/ha
In short: as §2

[6] = system: barnyard grass; experiment: Test Example 5: herbicidal effect by foliage application, plastic box (Table 20, symbol H); assay type: in vivo, barnyard grass (Echinochloa crus-galli); details: foliage application, 320 g/ha
In short: as §1

[7] = system: Italian ryegrass; experiment: Test Example 4: herbicidal effect by soil treatment (Table 19, symbol K); assay type: in vivo, Italian ryegrass (Lolium multiflorum); details: amount of applied herbicide 320 g/ha
In short: as §2

[8] = system: false cleavers; experiment: Test Example 5: herbicidal effect by foliage application, plastic box (Table 20, symbol Q); assay type: in vivo, false cleavers (Galium spurium); details: foliage application, 320 g/ha
In short: as §1

[9] = system: green foxtail; experiment: Test Example 4: herbicidal effect by soil treatment (Table 19, symbol G); assay type: in vivo, green foxtail (Setaria viridis); details: amount of applied herbicide 320 g/ha
In short: as §2

[10] = system: Italian ryegrass; experiment: Test Example 5: herbicidal effect by foliage application, plastic box (Table 20, symbol K); assay type: in vivo, Italian ryegrass (Lolium multiflorum); details: foliage application, 320 g/ha
In short: as §1

[11] = system: wild oat; experiment: Test Example 5: herbicidal effect by foliage application, plastic box (Table 20, symbol I); assay type: in vivo, wild oat (Avena fatua); details: foliage application, 320 g/ha
In short: as §1

[12] = system: oval-leafed pondweed; experiment: Test Example 2: herbicidal activity, application during weed generation under submerged conditions (Table 17, symbol C); assay type: in vivo, oval-leafed pondweed (Monochoria vaginalis); details: AAH 320 g/ha; application during weed generation, submerged conditions
In short: (§3)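 Effect on each weed is rated three weeks post-treatment, using the same scoring criteria as the preceding test. Plants grow from mixed-sown seed in flooded alluvial soil (4 cm water) at 25° C. to 30° C., and are treated at one to two leaves with diluted emulsion dropped onto the water.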

[13] = system: chickweed; experiment: Test Example 5: herbicidal effect by foliage application, plastic box (Table 20, symbol P); assay type: in vivo, common chickweed (Stellaria media); details: foliage application, 320 g/ha
In short: as §1

[14] = system: persian speedwell; experiment: Test Example 4: herbicidal effect by soil treatment (Table 19, symbol R); assay type: in vivo, Persian speedwell (Veronica persica); details: amount of applied herbicide 320 g/ha
In short: as §2

[15] = system: velvetleaf; experiment: Test Example 5: herbicidal effect by foliage application, plastic box (Table 20, symbol M); assay type: in vivo, velvetleaf (Abutilon theophrasti); details: foliage application, 320 g/ha
In short: as §1

[16] = system: velvetleaf; experiment: Test Example 4: herbicidal effect by soil treatment (Table 19, symbol M); assay type: in vivo, velvetleaf (Abutilon theophrasti); details: amount of applied herbicide 320 g/ha
In short: as §2

[17] = system: persian speedwell; experiment: Test Example 5: herbicidal effect by foliage application, plastic box (Table 20, symbol R); assay type: in vivo, Persian speedwell (Veronica persica); details: foliage application, 320 g/ha
In short: as §1

[18] = system: lambsquarters; experiment: Test Example 5: herbicidal effect by foliage application, plastic box (Table 20, symbol O); assay type: in vivo, lambsquarters (Chenopodium album); details: foliage application, 320 g/ha
In short: as §1

[19] = system: wild oat; experiment: Test Example 4: herbicidal effect by soil treatment (Table 19, symbol I); assay type: in vivo, wild oat (Avena fatua); details: amount of applied herbicide 320 g/ha
In short: as §2

[20] = system: barnyard grass; experiment: Test Example 4: herbicidal effect by soil treatment (Table 19, symbol H); assay type: in vivo, barnyard grass (Echinochloa crus-galli); details: amount of applied herbicide 320 g/ha
In short: as §2

[21] = system: redroot pigweed; experiment: Test Example 4: herbicidal effect by soil treatment (Table 19, symbol N); assay type: in vivo, redroot pigweed (Amaranthus retroflexus); details: amount of applied herbicide 320 g/ha
In short: as §2

[22] = system: blackgrass; experiment: Test Example 4: herbicidal effect by soil treatment (Table 19, symbol J); assay type: in vivo, blackgrass (Alopecurus myosuroides); details: amount of applied herbicide 320 g/ha
In short: as §2

[23] = system: Japanese bulrush; experiment: Test Example 2: herbicidal activity, application during weed generation under submerged conditions (Table 17, symbol B); assay type: in vivo, Japanese bulrush (Schoenoplectus juncoides); details: AAH 320 g/ha; application during weed generation, submerged conditions
In short: as §3

[24] = system: barnyard grass; experiment: Test Example 3: herbicidal effect by foliage application, Wagner pot (Table 18, symbol H); assay type: in vivo, barnyard grass (Echinochloa crus-galli)
In short: (§4)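 Plants were sown in alluvial soil held under 0.1–0.5 cm standing water and grown 14 days in a greenhouse at 25–30 °C. An emulsifiable formulation, water-diluted to the set dose, was then sprayed onto the foliage, and effects were scored three weeks later using previously defined criteria.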

[25] = system: redroot pigweed; experiment: Test Example 5: herbicidal effect by foliage application, plastic box (Table 20, symbol N); assay type: in vivo, redroot pigweed (Amaranthus retroflexus); details: foliage application, 320 g/ha
In short: as §1

[26] = system: late watergrass; experiment: Test Example 2: herbicidal activity, application during weed generation under submerged conditions (Table 17, symbol A); assay type: in vivo, late watergrass (Echinochloa oryzicola); details: AAH 320 g/ha; application during weed generation, submerged conditions
In short: as §3

[27] = system: green foxtail; experiment: Test Example 5: herbicidal effect by foliage application, plastic box (Table 20, symbol G); assay type: in vivo, green foxtail (Setaria viridis); details: foliage application, 320 g/ha
In short: as §1

[28] = system: false cleavers; experiment: Test Example 4: herbicidal effect by soil treatment (Table 19, symbol Q); assay type: in vivo, false cleavers (Galium spurium); details: amount of applied herbicide 320 g/ha
In short: as §2

[29] = system: rice flat sedge; experiment: Test Example 3: herbicidal effect by foliage application, Wagner pot (Table 18, symbol E); assay type: in vivo, rice flat sedge (Cyperus iria)
In short: as §4

[30] = system: Chinese sprangletop; experiment: Test Example 3: herbicidal effect by foliage application, Wagner pot (Table 18, symbol D); assay type: in vivo, chinese sprangletop (Leptochloa chinensis)
In short: as §4

[31] = system: lambsquarters; experiment: Test Example 4: herbicidal effect by soil treatment (Table 19, symbol O); assay type: in vivo, lambsquarters (Chenopodium album); details: amount of applied herbicide 320 g/ha
In short: as §2

[32] = system: windgrass; experiment: Test Example 4: herbicidal effect by soil treatment (Table 19, symbol L); assay type: in vivo, windgrass (Apera spica-venti); details: amount of applied herbicide 320 g/ha
In short: as §2

[33] = evaluated three weeks after application
[34] = amount of applied herbicide 320 g/ha

Compound: COc1ccc(-c2sc3ccccc3c2-c2c(O)c(C)nn(C)c2=O)cc1C [1-068]
- herbicidal effect grade, L: windgrass ([1]; three weeks after application): 0 (Herbicidal rate of 5% or less (almost no effect))
- herbicidal effect grade, J: blackgrass ([2]; three weeks after application): 0 (Herbicidal rate of 5% or less (almost no effect))
- herbicidal effect grade, F: southern crabgrass ([3]; three weeks after application): 3 (Herbicidal rate of 40% or more and less than 70%)
- herbicidal effect rating, F: southern crabgrass [4]: 0 (Herbicidal rate of 5% or less (almost no effect))
- herbicidal effect rating, P: chickweed [5]: 2 (Herbicidal rate of 20% or more and less than 40%)
- herbicidal effect grade, H: barnyard grass ([6]; three weeks after application): 3 (Herbicidal rate of 40% or more and less than 70%)
- herbicidal effect rating, K: Italian ryegrass [7]: 2 (Herbicidal rate of 20% or more and less than 40%)
- herbicidal effect grade, Q: false cleavers ([8]; three weeks after application): 0 (Herbicidal rate of 5% or less (almost no effect))
- herbicidal effect rating, G: green foxtail [9]: 4 (Herbicidal rate of 70% or more and less than 90%)
- herbicidal effect grade, K: Italian ryegrass ([10]; three weeks after application): 3 (Herbicidal rate of 40% or more and less than 70%)
- herbicidal effect grade, I: wild oat ([11]; three weeks after application): 1 (Herbicidal rate of 5% or more and less than 20%)
- herbicidal effect rating, C: oval-leafed pondweed [12]: 3 (Herbicidal rate of 40% or more and less than 70%)
- herbicidal effect grade, P: chickweed ([13]; three weeks after application): 5 (Herbicidal rate of 90% or more (almost completely withered))
- herbicidal effect rating, R: persian speedwell [14]: 4 (Herbicidal rate of 70% or more and less than 90%)
- herbicidal effect grade, M: velvetleaf ([15]; three weeks after application): 3 (Herbicidal rate of 40% or more and less than 70%)
- herbicidal effect rating, M: velvetleaf [16]: 0 (Herbicidal rate of 5% or less (almost no effect))
- herbicidal effect grade, R: persian speedwell ([17]; three weeks after application): 5 (Herbicidal rate of 90% or more (almost completely withered))
- herbicidal effect grade, O: lambsquarters ([18]; three weeks after application): 3 (Herbicidal rate of 40% or more and less than 70%)
- herbicidal effect rating, I: wild oat [19]: 0 (Herbicidal rate of 5% or less (almost no effect))
- herbicidal effect rating, H: barnyard grass [20]: 4 (Herbicidal rate of 70% or more and less than 90%)
- herbicidal effect rating, N: redroot pigweed [21]: 0 (Herbicidal rate of 5% or less (almost no effect))
- herbicidal effect rating, J: blackgrass [22]: 0 (Herbicidal rate of 5% or less (almost no effect))
- herbicidal effect rating, B: Japanese bulrush [23]: 1 (Herbicidal rate of 5% or more and less than 20%)
- herbicidal effect on H (barnyard grass), rating 0-5 ([24]; 320 g/ha): 3 (Herbicidal rate of 40% or more and less than 70%)
- herbicidal effect grade, N: redroot pigweed ([25]; three weeks after application): 0 (Herbicidal rate of 5% or less (almost no effect))
- herbicidal effect rating, A: late watergrass [26]: 0 (Herbicidal rate of 5% or less (almost no effect))
- herbicidal effect grade, G: green foxtail ([27]; three weeks after application): 3 (Herbicidal rate of 40% or more and less than 70%)
- herbicidal effect rating, Q: false cleavers [28]: 0 (Herbicidal rate of 5% or less (almost no effect))
- herbicidal effect on E (rice flat sedge), rating 0-5 ([29]; 320 g/ha): 5 (Herbicidal rate of 90% or more (almost completely withered))
- herbicidal effect on D (Chinese sprangletop), rating 0-5 ([30]; 320 g/ha): 1 (Herbicidal rate of 5% or more and less than 20%)

Compound: CCCC(=O)Oc1c(C)nn(C)c(=O)c1-c1c(-c2ccc3c(c2)OCCO3)sc2ccc(Cl)cc12 [2-128]
- O: lambsquarters, herbicidal effect rating [31]: 0 (Herbicidal rate of 5% or less (almost no effect))
- herbicidal effect on L: windgrass [1, 33]: 0 (Herbicidal rate of 5% or less (almost no effect))
- herbicidal effect on J: blackgrass [2, 33]: 0 (Herbicidal rate of 5% or less (almost no effect))
- herbicidal effect on F: southern crabgrass [3, 33]: 0 (Herbicidal rate of 5% or less (almost no effect))
- F: southern crabgrass, herbicidal effect rating [4]: 0 (Herbicidal rate of 5% or less (almost no effect))
- P: chickweed, herbicidal effect rating [5]: 1 (Herbicidal rate of 5% or more and less than 20%)
- herbicidal effect on H: barnyard grass [6, 33]: 0 (Herbicidal rate of 5% or less (almost no effect))
- K: Italian ryegrass, herbicidal effect rating [7]: 0 (Herbicidal rate of 5% or less (almost no effect))
- herbicidal effect on Q: false cleavers [8, 33]: 0 (Herbicidal rate of 5% or less (almost no effect))
- G: green foxtail, herbicidal effect rating [9]: 0 (Herbicidal rate of 5% or less (almost no effect))
- herbicidal effect on K: Italian ryegrass [10, 33]: 0 (Herbicidal rate of 5% or less (almost no effect))
- herbicidal effect on I: wild oat [11, 33]: 0 (Herbicidal rate of 5% or less (almost no effect))
- herbicidal effect rating, C: oval-leafed pondweed [12]: 3 (Herbicidal rate of 40% or more and less than 70%)
- herbicidal effect on P: chickweed [13, 33]: 5 (Herbicidal rate of 90% or more (almost completely withered))
- R: persian speedwell, herbicidal effect rating [14]: 5 (Herbicidal rate of 90% or more (almost completely withered))
- herbicidal effect on M: velvetleaf [15, 33]: 2 (Herbicidal rate of 20% or more and less than 40%)
- M: velvetleaf, herbicidal effect rating [16]: 0 (Herbicidal rate of 5% or less (almost no effect))
- herbicidal effect on R: persian speedwell [17, 33]: 5 (Herbicidal rate of 90% or more (almost completely withered))
- herbicidal effect on O: lambsquarters [18, 33]: 1 (Herbicidal rate of 5% or more and less than 20%)
- I: wild oat, herbicidal effect rating [19]: 0 (Herbicidal rate of 5% or less (almost no effect))
- H: barnyard grass, herbicidal effect rating [20]: 0 (Herbicidal rate of 5% or less (almost no effect))
- N: redroot pigweed, herbicidal effect rating [21]: 0 (Herbicidal rate of 5% or less (almost no effect))
- herbicidal effect rating, B: Japanese bulrush [23]: 0 (Herbicidal rate of 5% or less (almost no effect))
- herbicidal effect on H: barnyard grass [24, 34]: 3 (Herbicidal rate of 40% or more and less than 70%)
- herbicidal effect on N: redroot pigweed [25, 33]: 3 (Herbicidal rate of 40% or more and less than 70%)
- herbicidal effect rating, A: late watergrass [26]: 0 (Herbicidal rate of 5% or less (almost no effect))
- herbicidal effect on G: green foxtail [27, 33]: 0 (Herbicidal rate of 5% or less (almost no effect))
- Q: false cleavers, herbicidal effect rating [28]: 0 (Herbicidal rate of 5% or less (almost no effect))
- herbicidal effect on E: rice flat sedge [29, 34]: 0 (Herbicidal rate of 5% or less (almost no effect))
- L: windgrass, herbicidal effect rating [32]: 0 (Herbicidal rate of 5% or less (almost no effect))
- herbicidal effect on D: Chinese sprangletop [30, 34]: 0 (Herbicidal rate of 5% or less (almost no effect))
